From ChEMBL document CHEMBL4888484, “Replenishing the malaria drug discovery pipeline: Screening and hit evaluation of the MMV Hit Generation Library 1 (HGL1) against asexual blood stage Plasmodium falciparum ,using a nano luciferase reporter read-out” (2022)

Key:
Plasmodium falciparum [1] = assay: Hit confirmation in dose-response curve in NF54 nanoGlo assay, at 72h; type: functional, organism-based, Erythrocyte; parameters: timepoint 72 hour; details: Plasmodium falciparum, NF54, Erythrocyte, 72 h
Plasmodium falciparum [2] = assay: Hit confirmation in dose-response curve in NF54 pLDH assay, at 72h; type: functional, organism-based; parameters: timepoint 72 hour; details: NF54, Erythrocyte
Plasmodium falciparum [3] = assay: Hit confirmation in dose-response curve in Dd2 pLDH assay, at 72h; type: functional, organism-based; parameters: timepoint 72 hour; details: Dd2, Erythrocyte
Plasmodium falciparum [4] = assay: Hit confirmation in dose-response curve in NF54 nanoGlo assay, at 12h; type: functional, organism-based, Erythrocyte; parameters: timepoint 12 hour; details: Plasmodium falciparum, NF54, Erythrocyte, 12 h
[5] = Hit confirmation in dose-response curve in HepG2 cytotoxicity assay, at 72h; type: toxicity, cell-based; parameters: timepoint 72 hour; details: human, HepG2 cells

Row | Compound | IC50 (Plasmodium falciparum [1]) | IC50 (Plasmodium falciparum [2]) | IC50 (Plasmodium falciparum [3]) | IC50 (Plasmodium falciparum [4]) | IC50 at 72 h [5]
1 | O=C(Nc1cccc(Cl)c1)Nc1cccc(-c2cnc3n2CCC3)c1 | 2.4 µM | 5.37 µM | 3.89 µM | 5.89 µM | > 10 µM
2 | CCN(CC)c1ccc(C(=O)Nc2ccc3nc(N4CCCC4)cc(C)c3c2)cc1 | 2 µM | 3.63 µM | 3.63 µM | 4.27 µM | > 10 µM
3 | CC12CN(S(=O)(=O)c3ccc4c(c3)OCCO4)C3(C(=O)OCc4ccccc4)CC1CCC23C (stereo not given) | 2.82 µM | 3.8 µM | 3.24 µM | > 10 µM | > 10 µM
4 | O=C(Nc1cccnc1)c1ccc(-c2ccc(Cl)c(Cl)c2)o1 | 2.24 µM | 8.32 µM | 7.94 µM | 1.66 µM | > 10 µM
5 | O=S(=O)(c1cccc(Cl)c1)N1CCc2nc(N3CCCCC3)nc(Oc3ccccc3)c2C1 | 1.95 µM | 3.02 µM | 2.75 µM | > 10 µM | > 10 µM
6 | CC(=O)Nc1ccc(-c2cn3c4ccccc4ccc3[n+]2C)cc1 | 0.49 µM | 0.263 µM | 1.41 µM | > 10 µM | > 10 µM
7 | COCCCn1c(NS(=O)(=O)c2ccc3ccccc3c2)c(S(=O)(=O)c2ccc(C)cc2)c2nc3ccccc3nc21 | 2.34 µM | 6.76 µM | 8.51 µM | 1.55 µM | > 10 µM
8 | Cc1cccc(-c2nc(C[N+]3(Cc4nc(-c5cccc(C)c5)oc4C)CCCC3)c(C)o2)c1 | 2.82 µM | 4.79 µM | 3.39 µM | > 10 µM | > 10 µM
9 | Cc1cccc2c(-c3cc(N)nc(N)n3)c[nH]c12 | 1 µM | 1.2 µM | 1.1 µM | 3.16 µM | > 10 µM
10 | CCN(CC)CCn1c2ccccc2n2cc(-c3ccc(Br)cc3)nc12 | 4.47 µM | 9.77 µM | 6.46 µM | 7.08 µM | > 10 µM
11 | COc1c2c(cc3c1[C@@H](C#CCOc1ccccc1)[N+](C)(C)CC3)OCO2 | 1.66 µM | 3.31 µM | 1.91 µM | > 10 µM | > 10 µM
12 | CCCOc1cccc2c(NC3CCN(CCOC)CC3)ccnc12 | 1.78 µM | 2.24 µM | 1.58 µM | 3.24 µM | > 10 µM
13 | O=C(CCc1ccc(Cl)c(C(F)(F)F)c1)N1CC[C@H](N2CCc3ccccc3C2)C1 | 5.5 µM | 5.62 µM | 8.32 µM | > 10 µM | > 10 µM
14 | O=C1NC(=O)c2ccc3c4c(ccc1c24)C(=O)N(c1ccccc1)C3=O | 6.03 µM | 3.55 µM | 1.66 µM | > 10 µM | > 10 µM
15 | Cc1ccc(C)c(-n2cnc(=O)n2[C@H]2CCN(C3CC3)C2=O)c1 | 2.95 µM | 8.32 µM | 5.75 µM | > 10 µM | > 10 µM
16 | Brc1cccc(-c2ccc(-c3cc(-c4ccccc4)nnc3-c3ccccc3)o2)c1 | 6.61 µM | > 10 µM | > 10 µM | 2 µM | > 10 µM
17 | Cc1nn(-c2nc3ccccc3[nH]2)c(O)c1CCC(C)C | 2.69 µM | 8.51 µM | 3.72 µM | 8.91 µM | > 10 µM
18 | COc1ccc(CN2CC[C@@H]3C(=O)NCCCCCCN(Cc4ccncc4)[C@@H]3C2)cc1Cn1ccnc1 | 1.1 µM | 1.15 µM | 1.17 µM | 7.08 µM | > 10 µM
19 | Cc1nn(C(C)(C)C)c2nc(C3CC3)cc(C(=O)N(C)c3ccccc3)c12 | 1.86 µM | 2.34 µM | 1.66 µM | > 10 µM | > 10 µM

Row | Compound | IC50 (Plasmodium falciparum [1]) | IC50 (Plasmodium falciparum [2]) | IC50 (Plasmodium falciparum [3]) | IC50 (Plasmodium falciparum [4]) | IC50 at 72 h [5]
20 | CC1(C)Cc2nc3ccccc3c(NCc3ccccc3)c2[C@@H](O)C1 | 2.34 µM | 3.98 µM | 2.63 µM | 4.37 µM | > 10 µM
21 | CNc1nc(NCc2ccccc2)nc2ccccc12 | 1.78 µM | 2.63 µM | 1.07 µM | 10.2 µM | > 10 µM
22 | COc1ccc(Cl)cc1C(=O)Nc1cc(C2CC2)nn1-c1nc(C)cc(=O)[nH]1 | 1.78 µM | > 10 µM | 8.13 µM | > 10 µM | > 10 µM
23 | O=S(=O)(c1ccc(F)c(Cl)c1)N1CC[C@H](Oc2ccncc2Cl)C1 | 1.86 µM | 7.59 µM | 2.69 µM | 3.24 µM | > 10 µM
24 | CC(C)N1CCC2(CC1)N=C(c1ccc3c(c1)OCO3)C[C@@H](c1cc(Cl)ccc1O)N2 | 3.8 µM | > 10 µM | 8.32 µM | 4.27 µM | > 10 µM
25 | CN(C)c1nc(N)cc(-c2cccc3cccnc23)n1 | 2 µM | 3.8 µM | 3.47 µM | > 10 µM | > 10 µM
26 | COc1ccc(-c2cc3n(n2)C[C@@](C)(C(=O)NCc2ccccc2)N(Cc2ccc4c(c2)OCO4)C3=O)cc1 | 2.45 µM | > 10 µM | 9.55 µM | 4.9 µM | > 10 µM
27 | Cc1ccc(C(F)(F)C(=O)NCCC(=O)NS(C)(=O)=O)cc1 | 2.75 µM | 0.447 µM | > 10 µM | > 10 µM | > 10 µM
28 | CC(C)c1cc(=O)[nH]c(-n2nc(C3CC3)cc2NC(=O)Cc2ccc(Cl)cc2)n1 | 1.91 µM | 7.76 µM | 3.89 µM | > 10 µM | > 10 µM
29 | Cc1oc(-c2ccn[nH]2)cc1S(=O)(=O)Nc1ccc(F)c(Cl)c1 | 5.37 µM | > 10 µM | > 10 µM | 2.57 µM | > 10 µM
30 | CN(C)CC(O)COc1ccc(S(=O)(=O)c2ccc(OCC(O)CN(C)C)c(Cl)c2)cc1Cl (stereo not given) | 1.51 µM | 2.45 µM | 1.38 µM | 3.98 µM | > 10 µM
31 | COc1ccc(-c2c[n+](-c3ccc(Cl)cc3)c3n2CCCCC3)cc1 | 1.38 µM | 2.24 µM | 1 µM | > 10 µM | > 10 µM
32 | CC1CCN(Cc2ccc(CNCc3c[nH]nc3-c3ccc(F)cc3)cc2)CC1 | 3.47 µM | 6.61 µM | 3.55 µM | 7.94 µM | > 10 µM
33 | O=C(N[C@@H]1CN(Cc2ccccn2)CCC[C@H]1O)c1ccc(OCc2ccccc2)cc1 | 2.45 µM | 4.07 µM | 2.29 µM | > 10 µM | > 10 µM
34 | O=C(Nc1ccc(Cl)c(Cl)c1)Nc1ccc(Cl)cc1NC(=O)Nc1ccc(Cl)c(Cl)c1 | 2.04 µM | 6.92 µM | 4.47 µM | 3.31 µM | > 10 µM
35 | O=S(=O)(c1ccc(Cl)s1)N1CCC(N2CCc3sccc3C2)CC1 | 3.47 µM | 1.12 µM | 5.62 µM | > 10 µM | > 10 µM
36 | OC(CNC1CCCNc2ccccc21)c1ccc(Cl)s1 (stereo not given) | 2.29 µM | 3.89 µM | 3.63 µM | 2.95 µM | > 10 µM
37 | Cc1nsc2ncc(C(=O)N3CCC(C)CC3)c(N3CCC(C(=O)Nc4cc(F)ccc4F)CC3)c12 | 2.82 µM | 11.5 µM | 9.77 µM | 6.92 µM | > 10 µM
